# Source: article PMC4721142, “Randomized controlled studies on the efficacy of antiarthritic agents in inhibiting cartilage degeneration and pain associated with progression of osteoarthritis in the rat” (Arthritis Research & Therapy, 2016)
# pIC50: −log10 of the molar value. Like-named read-outs stand apart in the source and are kept apart here.
# Key:
# NF-κB [1] = assay: TNF-α-stimulated NF-κB dual luciferase reporter assay in HeLa cells; type: cell-based
# Protocol: NF-κB activity was assessed using a previously described dual plasmid reporter system. HeLa cells were transfected with NF-κB luciferase (Stratagene Products Division, Agilent Technologies, La Jolla, CA, USA) and pRLuc-N3 (PerkinElmer, Waltham, MA, USA) at an 8:1 ratio, respectively, in triplicate. […] NF-κB activity was measured 5 h later with a Dual-Glo Luciferase Assay (Promega, Madison, WI, USA) and an Omni plate reader (BMG Labtech, Cary, NC, USA). The ratio of firefly luciferase luminescence (NF-κB reporter) to Renilla luciferase luminescence (control) was normalized for the number of viable transfected cells. Data are reported as a ratio of activity of viable treated cells over the activity of cells not exposed to TNF-α or drug (fold stimulation above basal untreated levels of activity). The viability of HeLa cells with and without drug was also measured using a CellTiter-Glo luminescent viability assay (Promega). […]
# NF-κB activity was assessed in HeLa cells that were transiently transfected with two reporter constructs as described in the manuscript. Agents were tested for their ability to block TNF- […]
# Expression of the luciferase from the Renilla construct was used as a measure of viability, which was confirmed with a cytotoxicity assay (see later section).
# HeLa cells = assay: HeLa cell viability (CellTiter-Glo)
# Protocol: NF-κB activity was assessed using a previously described dual plasmid reporter system. HeLa cells were transfected with NF-κB luciferase (Stratagene Products Division, Agilent Technologies, La Jolla, CA, USA) and pRLuc-N3 (PerkinElmer, Waltham, MA, USA) at an 8:1 ratio, respectively, in triplicate. […] NF-κB activity was measured 5 h later with a Dual-Glo Luciferase Assay (Promega, Madison, WI, USA) and an Omni plate reader (BMG Labtech, Cary, NC, USA). The ratio of firefly luciferase luminescence (NF-κB reporter) to Renilla luciferase luminescence (control) was normalized for the number of viable transfected cells. Data are reported as a ratio of activity of viable treated cells over the activity of cells not exposed to TNF-α or drug (fold stimulation above basal untreated levels of activity). The viability of HeLa cells with and without drug was also measured using a CellTiter-Glo luminescent viability assay (Promega).
# In Vitro Hela Cell Drug Toxicity Testing
# Potential drug toxicity was measured using a CTG assay and HeLa cells (Promega). Drugs not tested in
# this assay were tested in either of the in vitro toxicity assays already presented (synovial or chondrocyte
# Table 3- Drug toxicity measured using a CTG assay and HeLa cells.
# [2] = Comparison of in vitro screens: overlapping effective and nontoxic range; details: for Overlapping effective and nontoxic range: inhibits with minimal or no toxicity to synovium or cartilage, overlapping range if effective in more than one assay;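 as to all read-outs here: compares non-toxic ranges in synovial cells and chondrocytes with effective ranges against NFkB, MMP-13 and osteoclasts, giving their overlap as the predicted efficacy range in uM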
# IκBα phosphorylation = tested on: IκBα phosphorylation; design: method as in PMID 18849610; details: reported; read-out: IC50 for block of IκBα phosphorylation; cited from earlier work
# [3] = tested on: Normal human articular chondrocytes; assay: Cytotoxicity to chondrogenic pellets (CellTiter-Blue)
# SW982 [4] = assay: Synovial toxicity (CellTiter-Glo), with or without TNF-α
# RAW 264.7 cells = assay: RANKL-mediated osteoclastogenesis / matrix resorption (Osteologic) assay; type: cell-based, murine
# Procedure, shortened: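 Agents were tested during or after differentiation. Wells were bleached and resorption pits were quantified by image analysis versus RANKL-only controls, using an unpaired t-test.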
# MMP-13 = MMP-13 ELISA on supernatants of TNF-α-treated chondrogenic pellets; type: cell-based, human
# [5] = tested on: Normal human articular chondrocytes
# SW982 [6] = tested on: SW982
# NF-κB [7] = details: reportedly; cited from earlier work
# IKK-2 = details: reported; cited from earlier work
# TNF-α in human monocytes = tested on: TNF-α in human monocytes; design: method as in PMID 15316093; details: reported; read-out: IC50, inhibits TNF-α in human monocytes; cited from earlier work
# [8] = tested on: IL-8 and IL-6 in synovial fibroblasts; design: method as in PMID 15316093; details: reported; read-out: IC50, blocks IL-8 and IL-6 in synovial fibroblasts; cited from earlier work
# [9] = tested on: rat inflammatory arthritis model; design: method as in per Calbiochem; details: 30 mg/kg; ref per Calbiochem; cited from earlier work
# [10] = published half-life; cited from earlier work
# IKK-1 = details: reported, cited from earlier work
smiles,measurement,setting,value
"O=C(Nc1cc(C(F)(F)F)cc(C(F)(F)F)c1)c1cc(Cl)ccc1O [IKK inhibitor V, N-(3,5-bis-trifluoromethyl-phenyl)-5-chloro-2-hydroxy-benzamide]",Effective against NF κβ (p<0.05),NF-κB [1],Only at toxic
same,Non-toxic concentrations,HeLa cells,None
same,Toxic concentrations (p<0.05),HeLa cells; human,0.101 to 26 M
same,Non-toxic & predicted range of efficacy,[2],1.625 to 26 µM
same,Overlapping effective and nontoxic range,[2],1.625 to 26 µM
same,pIC50,IκBα phosphorylation,6.60
same,Non-toxic range (Chondrocyte),"[3]; male, human, 24 h",0.4 to 13 µM
same,Non-toxic range (Synovial),SW982 [4]; human,0.1 to 0.2 µM
"[C-]#[O+].[C-]#[O+].[C-]#[O+].[C-]#[O+].[C-]#[O+].[C-]#[O+].[Cl][Ru][Cl].[Cl][Ru][Cl] [CORM-2, tricarbonyldichlororuthenium(II) dimer]","Lowest inhibitory concentration, matrix resorption",RAW 264.7 cells,20 µM
same,Effective range against MMP-13,MMP-13,10 – 40 M
same,Non-toxic & predicted range of efficacy,[2],20 to 40 µM
same,Overlapping effective and nontoxic range,[2],20–40+ μM
same,Non-toxic range (Chondrocyte),[5],0.625 to 40 M
same,Non-toxic range (Synovial),SW982 [6],2.5 to 40 M
"O=C1C(=Cc2ccccc2F)CNCC1=Cc1ccccc1F [Curcumin-14, 3,5-bis(2-flurobenzylidene)piperidin-4-one]",Effective range against NFkB,NF-κB [1],≥ 2.5 µM
same,Effective range against Osteoclasts,RAW 264.7 cells,Not effective
same,Effective range against MMP-13,MMP-13,≥ 0.625 µM
same,Non-toxic & predicted range of efficacy,[2],2.5 to 10 µM
same,Overlapping effective and nontoxic range,[2],2.5 to 10 µM
same,times more potent than curcumin,NF-κB [7],"Reportedly 10 times more potent than curcumin Inhibits NF-κB by inhibiting IκB kinase (IKK) [82] Potent anticarcinogenic activity inducing death of lung, breast, ovarian, and cervical cancer cells [82]"
"NC(=O)Nc1sc(-c2ccc(F)cc2)cc1C(N)=O [IKK-2 inhibitor IV, [5-(p-Fluorophenyl)-2-ureido]thiophene-3-carboxamide]",Effective against NF κβ (p<0.05),NF-κB [1],Not consistently
same,pIC50,TNF-α in human monocytes,5.60 to 6.82
same,pIC50,[8],7.00
same,Reduced paw edema,[9],~100%
same,Non-toxic range (Synovial),SW982 [4],0 to 2e+07 µM
Cc1ccc2nc(NCCN)c3ncc(C)n3c2c1 [BMS-345541],Effective against NF κβ (p<0.05),NF-κB [1],1 to 15.6 µM
same,Inhibition of NF-κB at the concentrations tested,NF-κB [1],failed to inhibit
same,Non-toxic concentrations,HeLa cells,0.24 to 15.6 µM
same,Non-toxic & predicted range of efficacy,[2],0.24 to 7.8 µM
same,Overlapping effective and nontoxic range,[2],0.244 µM
same,t 1/2,[10],2.2 h
same,pIC50,IKK-2,6.52
same,pIC50,IKK-1,5.40
same,Non-toxic range (Chondrocyte),[3],0.24 to 15.6 µM
same,Non-toxic range (Synovial),SW982 [4],0.24 to 7.8 µM
"N#Cc1c(C2CCNCC2)cc(-c2c(O)cccc2OCC2CC2)nc1N [IKK inhibitor VIII, 2-amino-6-(2-(cyclopropylmethoxy)-6-hydroxyphenyl)-4-(4-piperidinyl)-3-pyridinecarbonitrile]",minimal effective concentration,"RAW 264.7 cells; Mus musculus, RAW264.7, 168 h, read-out: Lowest inhibitory concentration, matrix resorption",0.5 µM
same,Non-toxic & predicted range of efficacy,[2],2 to 4 µM
same,Overlapping effective and nontoxic range,[2],4 (toxicity to synovial cells) μM
same,pIC50,IKK-2,8.07
same,pIC50,IKK-1; ref per Calbiochem,6.60
same,Non-toxic range (Chondrocyte),[3],0.25 to 16 µM
same,Non-toxic range (Synovial),SW982 [4],0.3 to 2 µM
